According to patent US20200247897A1, “THERAPEUTIC ANTIBODIES BASED ON MUTATED IGG HEXAMERS” (GENMAB B.V., priority 2017, published 2020):

Tests used:
[1] = test system: LS-411N; experiment: Drug combination screen (ATPlite, Synergy Score), LS-411N; format: cell-based, human; conditions: compound in combination with IgG1-hDR5-01-G56T-E430G + IgG1-hDR5-05-E430G; LS-411N; 72 hour ATPlite, 6x6 matrix
[2] = test system: SW480; experiment: Drug combination screen (ATPlite, Synergy Score), SW480; format: cell-based, human; conditions: compound in combination with IgG1-hDR5-01-G56T-E430G + IgG1-hDR5-05-E430G; SW480; 72 hour ATPlite, 6x6 matrix
[3] = test system: DLD-1; experiment: Drug combination screen (ATPlite, Synergy Score), DLD-1; conditions: compound in combination with IgG1-hDR5-01-G56T-E430G + IgG1-hDR5-05-E430G; DLD-1; 120 hour ATPlite, 6x6 matrix
[4] = test system: HCT 116; experiment: Drug combination screen (ATPlite, Synergy Score), HCT 116; conditions: compound in combination with IgG1-hDR5-01-G56T-E430G + IgG1-hDR5-05-E430G; HCT 116; 120 hour ATPlite, 6x6 matrix
[5] = test system: SNU-C2B; experiment: Drug combination screen (ATPlite, Synergy Score), SNU-C2B; conditions: compound in combination with IgG1-hDR5-01-G56T-E430G + IgG1-hDR5-05-E430G; SNU-C2B; 72 hour ATPlite, 6x6 matrix

## Cc1ccc(NC(=O)c2ccc(CN3CCN(C)CC3)cc2)cc1Nc1nc(-c2cccnc2)cs1 [Masitinib]
[1]
  Synergy Score LS-411N: 1.4
[2]
  Synergy Score SW480: 1.9
[3]
  Synergy Score DLD-1: 0.6
[4]
  Synergy Score HCT-116: 0.3
[5]
  Synergy Score SNU-C2B: 1.7

## CC1=C(C(=O)Nc2cc3cn[nH]c3cc2F)C(c2ccc(C(F)(F)F)cc2)CC(=O)N1 (centres unmarked) [Compound G5K429286A]
[1]
  Synergy Score LS-411N: 9.8
[2]
  Synergy Score SW480: 5.3
[3]
  Synergy Score DLD-1: 4.9
[4]
  Synergy Score HCT-116: 2.6
[5]
  Synergy Score SNU-C2B: 5.3

## C[C@@H]1CCN(C(=O)CC#N)C[C@@H]1N(C)c1ncnc2[nH]ccc12 [CP-690550]
[1]
  Synergy Score LS-411N: 0.6
[2]
  Synergy Score SW480: 0
[3]
  Synergy Score DLD-1: 0.1
[4]
  Synergy Score HCT-116: 0
[5]
  Synergy Score SNU-C2B: 0.1

## Cn1c(Nc2ccc(C(F)(F)F)cc2)nc2cc(Oc3ccnc(-c4ncc(C(F)(F)F)[nH]4)c3)ccc21 [RAF265]
[1]
  Synergy Score LS-411N: 10.5
[2]
  Synergy Score SW480: 4.5
[3]
  Synergy Score DLD-1: 5.6
[4]
  Synergy Score HCT-116: 2.5
[5]
  Synergy Score SNU-C2B: 3.7

## CN(C)CC[C@H](CSc1ccccc1)Nc1ccc(S(=O)(=O)NC(=O)c2ccc(N3CCN(Cc4ccccc4-c4ccc(Cl)cc4)CC3)cc2)cc1[N+](=O)[O-] [ABT-737]
[1]
  Synergy Score LS-411N: 4.2
[2]
  Synergy Score SW480: 7.5
[3]
  Synergy Score DLD-1: 1.5
[4]
  Synergy Score HCT-116: 0
[5]
  Synergy Score SNU-C2B: 1.1

## Nc1cccc2c1C(=O)N(C1CCC(=O)NC1=O)C2=O (centres unmarked) [Pomalidomide]
[1]
  Synergy Score LS-411N: 0
[2]
  Synergy Score SW480: 0
[3]
  Synergy Score DLD-1: 0.1
[4]
  Synergy Score HCT-116: 0
[5]
  Synergy Score SNU-C2B: 0.5

## Cn1cc(C2=C(c3cn(C4CCN(Cc5ccccn5)CC4)c4ccccc34)C(=O)NC2=O)c2ccccc21 [Enzastaurin]
[1]
  Synergy Score LS-411N: 5.6
[2]
  Synergy Score SW480: 6.3
[3]
  Synergy Score DLD-1: 0.9
[4]
  Synergy Score HCT-116: 0.6
[5]
  Synergy Score SNU-C2B: 0.5

## CCCS(=O)(=O)Nc1ccc(F)c(C(=O)c2c[nH]c3ncc(-c4ccc(Cl)cc4)cc23)c1F [PLX-4032]
[1]
  Synergy Score LS-411N: 0.6
[2]
  Synergy Score SW480: 1
[3]
  Synergy Score DLD-1: 0.6
[4]
  Synergy Score HCT-116: 0.1
[5]
  Synergy Score SNU-C2B: 0.5

## O=C(c1cc(Cc2n[nH]c(=O)c3ccccc23)ccc1F)N1CCN(C(=O)C2CC2)CC1 [Olaparib]
[1]
  Synergy Score LS-411N: 2.7
[2]
  Synergy Score SW480: 1
[3]
  Synergy Score DLD-1: 0.7
[4]
  Synergy Score HCT-116: 1.8
[5]
  Synergy Score SNU-C2B: 2.5

## IC-87114
[1]
  Synergy Score LS-411N: 0.2
[2]
  Synergy Score SW480: 0
[3]
  Synergy Score DLD-1: 0
[4]
  Synergy Score HCT-116: 0.1
[5]
  Synergy Score SNU-C2B: 0.1

## C=CC(=O)Nc1ccc2ncnc(Nc3ccc(OCc4cccc(F)c4)c(Cl)c3)c2c1 [AST-1306]
[1]
  Synergy Score LS-411N: 1.8
[2]
  Synergy Score SW480: 0.9
[3]
  Synergy Score DLD-1: 0.3
[4]
  Synergy Score HCT-116: 0.1
[5]
  Synergy Score SNU-C2B: 0.7

## Nc1ccn([C@@H]2O[C@H](CO)[C@@H](O)C2(F)F)c(=O)n1 [Gemcitabine]
[1]
  Synergy Score LS-411N: 5.7
[2]
  Synergy Score SW480: 31.1
[3]
  Synergy Score DLD-1: 20.3
[4]
  Synergy Score HCT-116: 12.2
[5]
  Synergy Score SNU-C2B: 18.5

## OCCn1cc(-c2ccc3c(c2)CC/C3=N\O)c(-c2ccncc2)n1 [GDC-0879]
[1]
  Synergy Score LS-411N: 0.4
[2]
  Synergy Score SW480: 1.6
[3]
  Synergy Score DLD-1: 0.1
[4]
  Synergy Score HCT-116: 0.2
[5]
  Synergy Score SNU-C2B: 0.7

## O=C1NC(=O)/C(=C/c2ccc3nccc(-c4ccncc4)c3c2)S1 [GSK1059615]
[1]
  Synergy Score LS-411N: 0.4
[2]
  Synergy Score SW480: 1.7
[3]
  Synergy Score DLD-1: 0.4
[4]
  Synergy Score HCT-116: 0.6
[5]
  Synergy Score SNU-C2B: 0.8

## CCc1c2c(nc3ccc(OC(=O)N4CCC(N5CCCCC5)CC4)cc13)-c1cc3c(c(=O)n1C2)COC(=O)[C@]3(O)CC [irinotecan, reference compound]
[1]
  Synergy Score LS-411N: 6.8
[2]
  Synergy Score SW480: 24.7
[3]
  Synergy Score DLD-1: 15
[4]
  Synergy Score HCT-116: 4.4
[5]
  Synergy Score SNU-C2B: 13.4

## Cn1c2ccccc2c2c3c(c4c5ccccc5n(CCC#N)c4c21)CNC3=O [Go 6976]
[1]
  Synergy Score LS-411N: 1.9
[2]
  Synergy Score SW480: 3.1
[3]
  Synergy Score DLD-1: 2.9
[4]
  Synergy Score HCT-116: 0.9
[5]
  Synergy Score SNU-C2B: 1.7

## CC(=O)O[C@@]12CO[C@@H]1C[C@H](O)[C@@]1(C)C(=O)[C@H](O)C3=C(C)[C@@H](OC(=O)[C@H](O)[C@@H](NC(=O)OC(C)(C)C)c4ccccc4)C[C@@](O)([C@@H](OC(=O)c4ccccc4)[C@H]21)C3(C)C [docetaxel]
[1]
  Synergy Score LS-411N: 36.2
[2]
  Synergy Score SW480: 19.5
[3]
  Synergy Score DLD-1: 17.6
[4]
  Synergy Score HCT-116: 7.9
[5]
  Synergy Score SNU-C2B: 15.8

## CO[C@H]1C[C@@H]2CC[C@@H](C)[C@@](O)(O2)C(=O)C(=O)N2CCCC[C@H]2C(=O)O[C@H]([C@H](C)C[C@@H]2CC[C@@H](OCCO)[C@H](OC)C2)CC(=O)[C@H](C)/C=C(\C)[C@@H](O)[C@@H](OC)C(=O)[C@H](C)C[C@H](C)/C=C/C=C/C=C/1C [Everolimus]
[1]
  Synergy Score LS-411N: 0.3
[2]
  Synergy Score SW480: 1.6
[3]
  Synergy Score DLD-1: 0.4
[4]
  Synergy Score HCT-116: 0.4
[5]
  Synergy Score SNU-C2B: 3.2

## TW-37
[1]
  Synergy Score LS-411N: 29.9
[2]
  Synergy Score SW480: 10.5
[4]
  Synergy Score HCT-116: 5.4

## COc1cccc2c1C(=O)c1c(O)c3c(c(O)c1C2=O)C[C@@](O)(C(=O)CO)C[C@@H]3O[C@H]1C[C@H](N)[C@H](O)[C@H](C)O1 [Doxorubicin]
[1]
  Synergy Score LS-411N: 9.4
[2]
  Synergy Score SW480: 20.5
[3]
  Synergy Score DLD-1: 16.2
[4]
  Synergy Score HCT-116: 4.6
[5]
  Synergy Score SNU-C2B: 18

## CC1(C)CCC(c2ccc(Cl)cc2)=C(CN2CCN(c3ccc(C(=O)NS(=O)(=O)c4ccc(N[C@H](CCN5CCOCC5)CSc5ccccc5)c(S(=O)(=O)C(F)(F)F)c4)cc3)CC2)C1 [ABT-263]
[1]
  Synergy Score LS-411N: 7.6
[2]
  Synergy Score SW480: 8
[3]
  Synergy Score DLD-1: 3.4
[4]
  Synergy Score HCT-116: 0
[5]
  Synergy Score SNU-C2B: 1

## O=C(/C=C/c1cccc(S(=O)(=O)Nc2ccccc2)c1)NO [Belinostat]
[1]
  Synergy Score LS-411N: 4.5
[2]
  Synergy Score SW480: 10.2
[3]
  Synergy Score DLD-1: 8.6
[4]
  Synergy Score HCT-116: 4.1
[5]
  Synergy Score SNU-C2B: 16.4

## C[C@]12C=CC(=O)C=C1CC[C@@H]1[C@@H]2C(=O)C[C@@]2(C)[C@H]1CC[C@]2(O)C(=O)CO [Prednisone]
[1]
  Synergy Score LS-411N: 0.1
[2]
  Synergy Score SW480: 0
[3]
  Synergy Score DLD-1: 0.1
[4]
  Synergy Score HCT-116: 0
[5]
  Synergy Score SNU-C2B: 0.2

## CO[C@H]1C[C@@H]2CC[C@@H](C)[C@@](O)(O2)C(=O)C(=O)N2CCCC[C@H]2C(=O)O[C@H]([C@H](C)C[C@@H]2CC[C@@H](OC(=O)C(C)(CO)CO)[C@H](OC)C2)CC(=O)[C@H](C)/C=C(\C)[C@@H](O)[C@@H](OC)C(=O)[C@H](C)C[C@H](C)/C=C/C=C/C=C/1C [Temsirolimus]
[1]
  Synergy Score LS-411N: 0.6
[2]
  Synergy Score SW480: 1.6
[3]
  Synergy Score DLD-1: 0.7
[4]
  Synergy Score HCT-116: 0.6
[5]
  Synergy Score SNU-C2B: 4.5

## C[C@H](Nc1ncnc2nc[nH]c12)c1cc2cccc(Cl)c2c(=O)n1-c1ccccc1 [IPI-145]
[1]
  Synergy Score LS-411N: 0.2
[2]
  Synergy Score SW480: 0.1
[3]
  Synergy Score DLD-1: 0
[4]
  Synergy Score HCT-116: 0
[5]
  Synergy Score SNU-C2B: 1

## COc1cc(C(=O)O)ccc1NC(=O)[C@@H]1N[C@@H](CC(C)(C)C)[C@](C#N)(c2ccc(Cl)cc2F)[C@H]1c1cccc(Cl)c1F [Idasanutlin]
[1]
  Synergy Score LS-411N: 16.3
[2]
  Synergy Score SW480: 6.1
[3]
  Synergy Score DLD-1: 6.3
[4]
  Synergy Score HCT-116: 3.2
[5]
  Synergy Score SNU-C2B: 10.4

## O=C(CCCCCCC(=O)Nc1ccccc1)NO
[1]
  Synergy Score LS-411N: 4.4
[2]
  Synergy Score SW480: 7.3
[3]
  Synergy Score DLD-1: 4.4
[4]
  Synergy Score HCT-116: 2.5
[5]
  Synergy Score SNU-C2B: 11

## COC1=CC(c2cc3ccccc3[nH]2)=N/C1=C\c1[nH]c(C)cc1C [Obatoclax]
[1]
  Synergy Score LS-411N: 22.8
[2]
  Synergy Score SW480: 11.8
[3]
  Synergy Score DLD-1: 6.1
[4]
  Synergy Score HCT-116: 1.6
[5]
  Synergy Score SNU-C2B: 4.7

## COc1cc2nccc(Oc3ccc(NC(=O)C4(C(=O)Nc5ccc(F)cc5)CC4)cc3)c2cc1OC [XL184]
[1]
  Synergy Score LS-411N: 5.8
[2]
  Synergy Score SW480: 6
[3]
  Synergy Score DLD-1: 4.1
[4]
  Synergy Score HCT-116: 1
[5]
  Synergy Score SNU-C2B: 1.5

## CCc1cc(Nc2nccc(-c3c(-c4ccc(OC)c(C(=O)Nc5c(F)cccc5F)c4)nc4ccccn34)n2)c(OC)cc1N1CCC(N2CCN(S(C)(=O)=O)CC2)CC1 [GSK1904529A]
[1]
  Synergy Score LS-411N: 6
[2]
  Synergy Score SW480: 2.2
[3]
  Synergy Score DLD-1: 1.4
[4]
  Synergy Score HCT-116: 0.2
[5]
  Synergy Score SNU-C2B: 2.7

## C[C@]1(c2nc3c(C(N)=O)cccc3[nH]2)CCCN1 [ABT-888]
[1]
  Synergy Score LS-411N: 0.7
[2]
  Synergy Score SW480: 0
[5]
  Synergy Score SNU-C2B: 0.1

## C[C@@H](Oc1cc(-c2cnn(C3CCNCC3)c2)cnc1N)c1c(Cl)ccc(F)c1Cl [Crizotinib]
[2]
  Synergy Score SW480: 8.9
[3]
  Synergy Score DLD-1: 13.4
[4]
  Synergy Score HCT-116: 7.7
[5]
  Synergy Score SNU-C2B: 5.4
